Experimental data from patent publication US20130039929A1, “METHOD TREATING BREAST CANCER” (priority 2010, published 2013).

System: HIF-1 dependent transcription
Assay: 5×HRE luciferase reporter assay of hypoxia (CoCl2)-induced transcription in MDAMB-231 cells
Format: cell-based
Settings: CoCl2 along with thalidomide 10 μM
From the text: FIGS. 5A-5E. FIG. 5A. Schematic map of luciferase reporter used; HRE: hypoxia responsive element. FIG. 5B. Assay of hypoxia-induced luciferase activity in the presence of each indicated siRNA transfection. **p<0.001, * p<0.01 versus control/CoCl2 one-way ANOVA, Bonferroni post test. FIG. 5C. Western blot showing the efficiency of knockdown for each βarr isoform. FIG. 5D. Assay of hypoxia induced luciferase reporter activity in Mouse Embryonic Fibroblasts (MEFs) that are null for both βarr1 and 2 under control and βarr1 replete conditions. *** p<0.001, between the two cobalt treated samples, Bonferroni post test, one-way ANOVA, n=3. FIG. 5E. Western blot of lysates showing expression of transfected βarr1.
FIGS. 7A-7D. FIG. 7A. […] FIG. 7B. […] FIG. 7C. […] FIG. 7D.
To test if the above β-arrestin1-HIF-1α interaction has functional consequences, an analysis was made of the effect of β-arrestin1 expression on HIF-1-mediated transcription during hypoxia. One of the most characterized HIF-regulated genes is the potent endothelial mitogen, VEGF-A, which regulates endothelial cell proliferation and blood vessel formation in both normal and cancerous tissues (Liu et al, Circ. Res. 77:638-643 (1995)). The VEGF-A gene contains a HRE in its 5′ UTR (untranslated region) and hypoxia induces a rapid and sustained increase in VEGF-A mRNA levels. […]

With `O=C1CCC(N2C(=O)c3ccccc3C2=O)C(=O)N1` (stereo not shown) [thalidomide] the “HIF-1 dependent transcriptional response (5×HRE luciferase reporter activity)” value was “complete inhibition”.
